Experimental data taken from patent publication US20170067014A1, “METHOD FOR GENERATING CELL CONDENSATE FOR SELF-ORGANIZATION” (PUBLIC UNIVERSITY CORPORATION YOKOHAMA CITY UNIVERSITY, priority 2014, published 2017).

Test system: condensate formation in cocultures of iPSC-hepatic endoderm cells, HUVECs and MSCs
Experiment: Inhibitory experiment against cell condensate formation using chemical substances
Format: cell-based, human
Details: addition to the cocultures
Text: Hepatic endoderm cells derived from human induced pluripotent stem cells (iPSCs), umbilical cord-derived endothelial cells (HUVECs), and mesenchymal stem cells (MSCs) were labeled with distinctive fluorescent markers and cocultured on a solidified matrix gel which was already described. […] To elucidate dynamics of such condensate formation in more detail, the present inventors examined the temporal development of the position of the edge of the cell condensate (square root of cell area) and circularity by image analysis (FIG. 1b).
On each well of a 24-well plate on which PA gel planar substrate was placed or to which Matrigel coating [Matrigel (BD) either in stock solution or as a mixture with medium at 1:1 was poured at 300 μl/well and left to stand in a 37° C., 5% CO2 incubator for 10 min until it solidified] was applied, 2×10^6 cells or more of multiple types in any combination (tissues isolated from embryo or adult, or KO-HepG2, HUVEC, etc.) as mixed with 2×10^5 MSCs were seeded. In order to form small-sized cell condensates, 4×10^3 cells or more of multiple types in any combination (tissues isolated from embryo or adult, or KO-HepG2, HUVEC) were mixed with 5×10^3 or more MSCs and seeded. In either case, the cells were subsequently cultured in a 37° C. incubator for a day. After seeding, chronological observation of cell coculture was performed with a stereomicroscope or a confocal microscope.

Row | SMILES | effect on condensate formation
1 | c1cc(CN2CCCNCCNCCCNCC2)ccc1CN1CCCNCCNCCCNCC1 [AMD3100] | could not hinder
2 | C[C@@H](N)[C@H]1CC[C@H](C(=O)Nc2ccncc2)CC1 [Sample Y-27632] | partially delayed
3 | Cc1ccc2c(c1)C(=O)C1(O)CCN(c3ccccc3)C1=N2 (stereo not drawn) [blebbistatin] | completely antagonized
